Experimental findings from patent publication US12605419B2, “Flavonoid extract of Cyclocarya paliurus leaves and antibacterial drugs and/or antibacterial agents containing thereof” (priority 2020, dated 2026) are described below.

Where two headings read alike, the source gives them in different places.

One test concerns S. aureus ATCC25923. Nature of the test: Sensitivity test (MIC, broth dilution per CLSI). It counts as cell-based. The settings on record: strain ATCC25923, MHB with 2% NaCl, 34° C., 24 hours, minimum concentration without colony growth. How it is done:
(§1) By referring to the methods and standards of the American Clinical and Laboratory Standards Institute (CLSI) for antimicrobial susceptibility testing, the drug resistance of each strain was verified. The MHB medium used in this test contained 2% NaCl (w/v).
(§2) Preparation of test bacteria: each bacterium was respectively inoculated in 5 ml MHB medium, and cultured overnight at 37° C. on a shaker. The bacterial solution was adjusted to 0.5 McFarland turbidity (MCF) unit, and further diluted by 100 folds. The final bacterial concentration was 5×10^5 cfu/ml.
(§3) Preparation of the flavonoids extract of C. paliurus leaves for application: 79.8 mg powder of the flavonoid extract from C. paliurus leaves prepared in Example 1 (based on the flavonoids proportion of 67.3581 wt. % in the flavonoids extract of C. paliurus leaves, the amount of flavonoids in the powder was 53.75 mg) was dissolved in 0.32 ml of DMSO, and further diluted with 3.68 ml MHB medium, to obtain the application solution of C. paliurus leaf with a flavonoids concentration at 13.44 mg/ml. […]
(§4) Sensitivity test: 100 μl of the bacterial solution prepared above was added to the wells with serial concentration of drugs and the medium control. […] The minimum drug concentration without colony growth was determined as the minimum inhibitory concentration (MIC).
On the technique in general: In broth dilution the organism is exposed to a series of concentrations in liquid medium.

In another test the test system is MRSA-1. Nature of the test: Sensitivity test (MIC, broth dilution per CLSI). In kind it is cell-based, Methicillin-resistant S. aureus. The note with it: strain MRSA-1, MHB with 2% NaCl, 34° C., 24 hours, minimum concentration without colony growth. How it is done:
as §1, §2
(§5) Preparation of the flavonoids extract of C. paliurus leaves for application: 79.8 mg powder of the flavonoid extract from C. paliurus leaves prepared in Example 1 (based on the flavonoids proportion of 67.3581 wt. % in the flavonoids extract of C. paliurus leaves, the amount of flavonoids in the powder was 53.75 mg) was dissolved in 0.32 ml of DMSO, and further diluted with 3.68 ml MHB medium, to obtain the application solution of C. paliurus leaf with a flavonoids concentration at 13.44 mg/ml.
(§6) 100 μl of medium was added into the second well, and serial 2-fold dilutions were prepared until to the ninth well. The 10th well was set as the medium control.
(§7) Sensitivity test: 100 μl of the bacterial solution prepared above was added to the wells with serial concentration of drugs and the medium control. The plate was placed in a humidified box and incubated at 34° C. for 24 hours. 20 μl of each bacterial solution was taken and diluted 50 times with the medium, then 100 μl of the diluted bacterial solution was spread on the culture plate and incubated overnight at 37° C. The minimum drug concentration without colony growth was determined as the minimum inhibitory concentration (MIC).

The next test has as its system MRSA-2. Nature of the test: Sensitivity test (MIC, broth dilution per CLSI). It counts as cell-based, Methicillin-resistant S. aureus. The settings on record: strain MRSA-2, MHB with 2% NaCl, 34° C., 24 hours, minimum concentration without colony growth. How it is done:
as §1, §2, §5, §6, §7

For a further test, the system named is MRSA-3. As to the kind of experiment: Sensitivity test (MIC, broth dilution per CLSI). It counts as cell-based, Methicillin-resistant S. aureus. The settings on record: strain MRSA-3, MHB with 2% NaCl, 34° C., 24 hours, minimum concentration without colony growth. How it is done:
as §1, §2, §5, §6, §7

The subject of another test is MRSA-5. As to the kind of experiment: Sensitivity test (MIC, broth dilution per CLSI). In kind it is cell-based, Methicillin-resistant S. aureus. The settings on record: strain MRSA-5, MHB with 2% NaCl, 34° C., 24 hours, minimum concentration without colony growth. How it is done: as §1, §2, §5, §6, §7
The subject of the next test is MRSA strains. Nature of the test: Sensitivity test, MRSA strains compared with ATCC25923. In kind it is cell-based, Methicillin-resistant S. aureus. The note with it: each MRSA strain vs ATCC25923. As for the experimental part:
as §1, §2, §3, §4

The next test deals with MRSA-4. Nature of the test: Sensitivity test (MIC, broth dilution per CLSI). It counts as cell-based, Methicillin-resistant S. aureus. The note with it: Staphylococcus aureus; strain MRSA-4; MHB with 2% NaCl, 34° C., 24 hours; minimum concentration without colony growth.
The mark [1] stands for this setting: Staphylococcus aureus, read-out: MIC.

In general, MIC refers to the lowest concentration found to suppress growth.

Protocol for MRSA-4: Sensitivity test: 100 μl of the bacterial solution prepared above was added to the wells with serial concentration of drugs and the medium control. The plate was placed in a humidified box and incubated at 34° C. for 24 hours. […] The minimum drug concentration without colony growth was determined as the minimum inhibitory concentration (MIC).

For `Cc1onc(-c2ccccc2)c1C(=O)N[C@@H]1C(=O)N2[C@@H]1SC(C)(C)[C@@H]2C(=O)[O-].[Na+]` [oxacillin sodium], the MIC against S. aureus ATCC25923 came out at 0.125 µg/mL; against MRSA-1 it was 0.5 µg/mL; in the test with MRSA-2, 0.5 µg/mL; against MRSA-3, 0.5 µg/mL; against MRSA-5 it was 0.5 µg/mL. For the same compound, the “Sensitivity of each MRSA strain compared with S. aureus ATCC25923” value in the test with MRSA strains is given as “lower than that of the standard strain of S. aureus ATCC25923”.
`CC1(C)S[C@@H]2[C@H](NC(=O)Cc3ccccc3)C(=O)N2[C@H]1C(=O)O` [penicillin sodium]: the MIC with S. aureus ATCC25923 (setting [1]) turned out to be 0.0312 µg/mL; in the test with MRSA-1 (setting [1]), 4 µg/mL; with MRSA-2 (setting [1]), 1 µg/mL; in the test on MRSA-3 (setting [1]), 1 µg/mL; in the test with MRSA-5 (setting [1]), 4 µg/mL; with MRSA-4 it was 32 µg/mL. For the same compound, the “Sensitivity of each MRSA strain compared with S. aureus ATCC25923” value with MRSA strains is given as “lower than that of the standard strain of S. aureus ATCC25923”.
